Test results: patent US6011000A, “Compositions for the treatment of blood disorders” (priority 1995, dated 2000)
Like-named read-outs stand apart in the source and are kept apart here.

Assays:
K562 cells = assay: Dose response of cell growth, trypan blue exclusion (FIG. 3); format: cell-based, human; conditions: day 4
Protocol: FIG. 3 Cell viability as determined by the comparative numbers of total and viable K562 cells in the presence of increasing concentrations of (A) phenoxyacetic acid, (B) dihydrocinnamic acid, (C) butyric acid ethyl ester, (D) arginine butyrate, and (E) isobutyramide.
Dose response curves at dosages of up to 2.0 mM were also determined for phenoxyacetic acid (PAA; FIG. 3A), dihydrocinnamic acid (DHC; FIG. 3B), butyric acid ethyl ester (BAEE; FIG. 3C), arginine butyrate (AB; FIG. 3D) and isobutyramide (IBT; FIG. 3E). Cells were counted on day 4 of treatment and viable cells identified by trypan blue exclusion.

[1] = test system: fetal globin mRNA (human erythroleukemia cells); assay: Fetal globin mRNA in erythroleukemia cells (primer extension); format: cell-based; conditions: for Gamma/Alpha: untreated 0.46; for activation at 1000 µM: Homo sapiens, 96 h, read-out: Gamma Globin mRNA (increase)
Protocol: Compounds were tested for increased expression of the human globin genes in human erythroid cells. In addition, as the cell line being tested is a tumor cell line, the assay determines if differentiation, a growth inhibitory effect on cancer cells, is induced by the compounds tested. Human erythroleukemia cells were cultured in RPMI media with 10% fetal calf serum alone or with treatment with various compounds for 4 days. Globin MRNA was quantitated by primer extension analysis. Fetal globin mRNA was compared to the amount of fetal globin mRNA produced in untreated cells during the same culture period. The quantitation was expressed as a percent of alpha globin MRNA which was constant. Results are expressed proportional to α-globin mRNA (Table 3).

K562 = assay: Growth of human erythroid cell line K562; format: cell-based; conditions: for growth of K562: over 3 days
Protocol: Such activities might limit their utility for treatment of anemias such as occur in thalassemia, but alternatively would be useful for anticancer effects. […]
Cell viability analyses were performed using fluorescent staining to detect living cells. Cells were in log phase of growth in 6-well dishes when used in proliferation assays. For enumeration of living cells, wells were washed once with medium to remove nonadherent or dead cells. Remaining live cells were labeled with Calcein-AM for 20 minutes at 37° C. and washed once. Fluorescence intensity of adherent live cells was read on a CytoFluor 2300 Fluorescence Plate Scanner (Millipore; Bedford, Mass.) at excitation and emission wavelengths of 485 and 530 nm, respectively. The fluorescence intensity of a well was proportional to the number of living cells in the well. Background fluorescence was measured separately for each plate and subtracted from all readings. Each experiment was performed in triplicate or quadruplicate. The standard deviation (SD) of repetitive readings was less than 30% of the mean.
At higher concentrations, still easily achievable in vivo, arginine butyrate (0.5 mM) and dihydrocinnamic acid (greater than 0.5 mM) inhibited growth of this tumor cell line by approximately 50%. Therefore, these compounds are also useful as anti-tumor agents.

human erythroid cells = assay: DNA fragmentation by flow cytometry (degradation of DNA); format: cell-based; conditions: for proportion of degraded DNA: 1.0 mM to 2.0 mM, untreated 26%; for Degraded DNA: 4 days, control 26%, 22%; for DNA fragmentation / cell viability / DNA integrity: DNA fragmentation assays
Protocol: Such activities might limit their utility for treatment of anemias such as occur in thalassemia, but alternatively would be useful for anticancer effects. To determine cell viability, human erythroid cells were cultured in the presence and absence of these compounds for 4 days and the amount of DNA fragmentation which occurred was measured.
Flow cytometric determination of DNA profiles and DNA fragmentation were determined. Cytometric analysis was performed with a FACScan (Becton Dickenson Instruments; Columbia, Md.). The data analysis and display were performed using the Cell-Fit software program. Approximately 0.5×10^6 cells were washed twice with PBS and resuspended in 1 ml of 1% sodium citrate, 0.1% Triton X-100 and 50 μg of propidium iodide/ml. Resulting permeabilized cells were kept in the dark at 4° C. overnight before DNA profile or DNA fragmentation analysis (Table 4).

anemic baboon = assay: In vivo reticulocyte proliferation, globin expression and blood counts in anemic (phlebotomized) baboons
Outline: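 Juvenile female baboons kept at 7.0–7.5 g/dl haemoglobin by daily phlebotomy got compounds sequentially, with wash-out until reticulocytes returned to baseline; each animal served as its own control. F-reticulocytes were measured by dual-antibody FACS, and γ/(γ+β) globin synthesis by ³H-leucine labelling and column chromatography. Blood counts were taken, unadjusted for phlebotomy.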

[2] = test system: system A transport (K562 cells and nucleated erythroblasts from fetal liver); assay: Effects on system A amino acid transport (3H-MAIB uptake); format: cell-based, human
Protocol: Inhibition of nutrient uptake is undesirable for treatment of anemias. Methyl aminoisobutyric acid (MAIB) labeled with tritium (^3 H) is normally taken up by system A amino acid transport. Cold (unlabeled) compounds were added to cultures containing ^3 H-MAIB and incubated for 1 hour. Cells were harvested and the amount of ^3 H taken up by cells was quantitated by scintillation counting.

[3] = 1,000 to 1,500 mg/kg/day i.v., 4 days

For `O=C(O)COc1ccccc1` [PAA, Phenoxyacetic acid], the proliferation (K562 cells; up to 2.0 mM) was “did not significantly inhibit proliferation”, the “induction of fetal globin mRNA” value [1] was “significantly increased the induction of fetal globin MRNA” and the Gamma/Alpha ([1]; 1.0 mM, 4 days) was 0.70. For the same molecule, the activation at 1000 µM [1] was 24%, the “growth of K562” value (K562; 0.5 mM) was “either did not inhibit, or slightly enhanced growth” and the “proportion of degraded DNA” value (human erythroid cells) was 20.6%. For the same molecule, the “Degraded DNA” value (human erythroid cells; 2.0 mM) was 20.6%, the “DNA fragmentation / cell viability / DNA integrity” value (human erythroid cells) was “reduce DNA fragmentation” and the “duration of effect after drug was discontinued” value (anemic baboon; 1,500 mg/kg infused daily, 5 days) was “maintained itself for two days after drug was discontinued and slowly declined thereafter”. For the same molecule, the Total hemoglobin (anemic baboon; 1,500 mg/kg infused daily, 5 days (FIG. 7), from 6.8) was 7.6 grams/dl, the reticulocytes (anemic baboon; 1,500 mg/kg infused daily, 5 days, from 1.9%) was 9.2 % of all red blood cells and the “white blood cell count” value (anemic baboon; 1,500 mg/kg infused daily, 5 days, from 6.9) was 9.5 10^3 cells/μl. For the same molecule, the “packed red blood cell volume” value (anemic baboon; 1,500 mg/kg infused daily, 5 days, from 22%) was 25.4%, the Fetal reticulocytes (anemic baboon; 500, 1,000, 1,500 mg/kg infused, after 3 days (FIG. 9), from 12%) was 27% and the “Fetal reticulocytes, increase above baseline” value (anemic baboon; [3]) was 800%. For the same molecule, the “Fetal reticulocytes, increase above baseline (fold)” value (anemic baboon; [3]) was “eight-fold”, the “increase in output of fetal globin production over basal levels” value (anemic baboon; [3]) was 4,000% and the Fetal reticulocytes (anemic baboon; 1,000 to 1,500 mg/kg/day i.v., 4 days, another juvenile baboon, from 2%) was 16%. For the same molecule, the “Fetal globin protein synthesis” value (anemic baboon; 1,000 to 1,500 mg/kg/day i.v., 4 days, from 0%) was 5%, the “system A (neutral) amino acid transport” value ([2]; 1 hour, 3H-MAIB (FIG. 12), listed as phenoxy acetic acid) was “caused no significant inhibition and actually increased uptake of nutrients into cells” and the “system A (neutral) amino acid transport” value ([2]; 1 hour, 3H-MAIB (FIG. 12), listed as phenoxyacetic acid) was “do not significantly alter system A transport of amino acids”.

`CCCC(=O)O` [AB, arginine butyrate] was tested, and the cell growth (K562 cells; concentrations above 0.2 mM) was “suppressed cell growth”, the “induction of fetal globin mRNA” value [1] was “significantly increased the induction of fetal globin MRNA” and the Gamma/Alpha ([1]; 1.0 mM, 4 days) was 0.66. For the same molecule, the activation at 1000 µM ([1]; 1.0 mM, 4 days) was 20%, the “growth of K562” value (K562; 0.2 mM) was “either did not inhibit, or slightly enhanced growth” and the inhibition at 500 µM (K562; Homo sapiens, K562, 0.5 mM) was about 50%. The “Degraded DNA” value (human erythroid cells; 0.5 mM) was 32%, the “proportion of degraded DNA” value (human erythroid cells) was 44% and the “Degraded DNA” value (human erythroid cells; 1.0 mM) was 34%. For the same molecule, the “Degraded DNA” value (human erythroid cells; 2.0 mM) was 44%, the “DNA fragmentation / cell viability / DNA integrity” value (human erythroid cells) was “decrease cell viability” and the response to treatment (anemic baboon; 1,000 mg/kg for 5 days) was “had not responded”. The response to treatment (anemic baboon; 2,000 mg/kg for 3 days) was “had not responded” and the “system A (neutral) amino acid transport” value [2] was “inhibited the neutral amino acid transport mechanism”.
